# Assays:
# Format in all cases: in vivo
# [1] = system: Italian ryegrass (Lolium mutiflorum); assay: Test C preemergence, visual plant response rating; conditions: Test C, 0 is no effect, 100 is complete control
# In short: (§1)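 Compounds in a non-phytotoxic solvent with surfactant were applied as a directed soil spray preemergence or to 2–10 cm, one- to two-leaf plants postemergence, in loam–sand soil. After about 10 d in a greenhouse, injury was visually rated against untreated controls on a 0–100 scale (100 = complete control).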
# [2] = system: barnyardgrass (Echinochloa crus-galli); assay: Test C preemergence, visual plant response rating; conditions: Test C, 0 is no effect, 100 is complete control
# In short: as §1
# [3] = system: foxtail, giant (giant foxtail, Setaria faberi); assay: Test C preemergence, visual plant response rating; conditions: Test C, 0 is no effect, 100 is complete control
# In short: as §1
# [4] = system: kochia (Bassia scoparia); assay: Test C preemergence, visual plant response rating; conditions: Test C, 0 is no effect, 100 is complete control
# In short: as §1
# [5] = system: pigweed (Amaranthus retroflexus); assay: Test C preemergence, visual plant response rating; conditions: Test C, 0 is no effect, 100 is complete control
# In short: as §1
# [6] = system: ragweed (common ragweed, Ambrosia artemisiifolia); assay: Test C preemergence, visual plant response rating; conditions: Test C, 0 is no effect, 100 is complete control
# In short: as §1
# [7] = system: Italian ryegrass (Lolium mutiflorum); assay: Test C postemergence, visual plant response rating
# In short: as §1
# [8] = system: barnyardgrass (Echinochloa crus-galli); assay: Test C postemergence, visual plant response rating
# In short: as §1
# [9] = system: blackgrass (Alopecurus myosuroides); assay: Test C postemergence, visual plant response rating
# In short: as §1
# [10] = system: corn (Zea mays); assay: Test C postemergence, visual plant response rating
# In short: as §1
# [11] = system: foxtail, giant (giant foxtail, Setaria faberi); assay: Test C postemergence, visual plant response rating
# In short: as §1
# [12] = system: galium (catchweed bedstraw, Galium aparine); assay: Test C postemergence, visual plant response rating
# In short: as §1
# [13] = system: kochia (Bassia scoparia); assay: Test C postemergence, visual plant response rating
# In short: as §1
# [14] = system: pigweed (Amaranthus retroflexus); assay: Test C postemergence, visual plant response rating
# In short: as §1
# [15] = system: ragweed (common ragweed, Ambrosia artemisiifolia); assay: Test C postemergence, visual plant response rating
# In short: as §1
# [16] = system: wheat (Triticum aestivum); assay: Test C postemergence, visual plant response rating
# In short: as §1
# [17] = system: barnyardgrass (Echinochloa crus-galli); assay: Test D flooded paddy test, visual plant response rating; conditions: 250 g ai/ha, scale 0 to 100 (0 no effect, 100 complete control), 13 to 15 d
# In short: (§2)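 Plants were grown to the 2-leaf stage, pots flooded to 3 cm above soil, and compound applied directly into the paddy water, with the depth held throughout. After 13 to 15 d in a greenhouse, response was rated visually against untreated controls on a 0–100 scale (0 no effect, 100 complete control).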
# [18] = system: duck salad (Heteranthera limosa); assay: as above; conditions: 250 g ai/ha, scale 0 to 100 (0 no effect, 100 complete control), 13 to 15 d
# In short: as §2
# [19] = system: rice (Oryza sativa); assay: as above; conditions: 250 g ai/ha, scale 0 to 100 (0 no effect, 100 complete control), 13 to 15 d
# In short: as §2
# [20] = system: sedge umbrella (small-flower umbrella sedge, Cyperus difformis); assay: as above; conditions: 250 g ai/ha, scale 0 to 100 (0 no effect, 100 complete control), 13 to 15 d
# In short: as §2
# [21] = Test C, postemergence, 125 g ai/ha
SMILES,"Ryegrass, Italian plant response rating (0 to 100 scale) ([1]; 31 g ai/ha)","Ryegrass, Italian plant response rating (0 to 100 scale) ([1]; 125 g ai/ha)",Barnyardgrass plant response rating (0 to 100 scale) ([2]; 31 g ai/ha),Barnyardgrass plant response rating (0 to 100 scale) ([2]; 125 g ai/ha),"Foxtail, Giant plant response rating (0 to 100 scale) ([3]; 31 g ai/ha)","Foxtail, Giant plant response rating (0 to 100 scale) ([3]; 125 g ai/ha)",Kochia plant response rating (0 to 100 scale) ([4]; 31 g ai/ha),Kochia plant response rating (0 to 100 scale) ([4]; 125 g ai/ha),Pigweed plant response rating (0 to 100 scale) ([5]; 31 g ai/ha),Pigweed plant response rating (0 to 100 scale) ([5]; 125 g ai/ha),Ragweed plant response rating (0 to 100 scale) ([6]; 31 g ai/ha),Ragweed plant response rating (0 to 100 scale) ([6]; 125 g ai/ha),"Ryegrass, Italian plant response rating (0 to 100 scale) ([7]; Postemergence, 31 g ai/ha)","Ryegrass, Italian plant response rating (0 to 100 scale) [7, 21]","Barnyardgrass plant response rating (0 to 100 scale) ([8]; Postemergence, 31 g ai/ha)","Barnyardgrass plant response rating (0 to 100 scale) [8, 21]","Blackgrass plant response rating (0 to 100 scale) ([9]; Postemergence, 31 g ai/ha)","Blackgrass plant response rating (0 to 100 scale) [9, 21]","Corn plant response rating (0 to 100 scale) ([10]; Postemergence, 31 g ai/ha)","Corn plant response rating (0 to 100 scale) [10, 21]",also measured
Cc1nn(C)c(=O)c(C(=NOCC2CC2)c2cc(Cl)cc(Cl)c2Cl)c1O [Compound 293],30,100,0,0,90,100,0,0,0,70,40,100,100,100,20,50,0,0,0,10,"Foxtail, Giant plant response rating (0 to 100 scale) ([11]; Postemergence, 31 g ai/ha): 40; Foxtail, Giant plant response rating (0 to 100 scale) [11, 21]: 80; Galium plant response rating (0 to 100 scale) ([12]; Postemergence, 31 g ai/ha): 100; Galium plant response rating (0 to 100 scale) [12, 21]: 100; Kochia plant response rating (0 to 100 scale) ([13]; Postemergence, 31 g ai/ha): 0; Kochia plant response rating (0 to 100 scale) [13, 21]: 30; Pigweed plant response rating (0 to 100 scale) ([14]; Postemergence, 31 g ai/ha): 20; Pigweed plant response rating (0 to 100 scale) [14, 21]: 40; Ragweed plant response rating (0 to 100 scale) ([15]; Postemergence, 31 g ai/ha): 100; Ragweed plant response rating (0 to 100 scale) [15, 21]: 100; Wheat plant response rating (0 to 100 scale) ([16]; Postemergence, 31 g ai/ha): 40; Wheat plant response rating (0 to 100 scale) [16, 21]: 70; Plant response rating, Barnyardgrass (Flood) [17]: 0; Plant response rating, Ducksalad (Flood) [18]: 0; Plant response rating, Rice (Flood) [19]: 0; Plant response rating, Sedge, Umbrella (Flood) [20]: 0"
C=CCON=C(c1cc(Cl)cc(Cl)c1Cl)c1c(O)c(C)nn(C)c1=O [Compound 294],60,100,70,100,70,100,0,50,20,80,70,100,50,100,20,60,0,0,0,10,"Foxtail, Giant plant response rating (0 to 100 scale) ([11]; Postemergence, 31 g ai/ha): 40; Foxtail, Giant plant response rating (0 to 100 scale) [11, 21]: 60; Galium plant response rating (0 to 100 scale) ([12]; Postemergence, 31 g ai/ha): 80; Galium plant response rating (0 to 100 scale) [12, 21]: 100; Kochia plant response rating (0 to 100 scale) ([13]; Postemergence, 31 g ai/ha): 20; Kochia plant response rating (0 to 100 scale) [13, 21]: 30; Pigweed plant response rating (0 to 100 scale) ([14]; Postemergence, 31 g ai/ha): 20; Pigweed plant response rating (0 to 100 scale) [14, 21]: 20; Ragweed plant response rating (0 to 100 scale) ([15]; Postemergence, 31 g ai/ha): 80; Ragweed plant response rating (0 to 100 scale) [15, 21]: 100; Wheat plant response rating (0 to 100 scale) ([16]; Postemergence, 31 g ai/ha): 0; Wheat plant response rating (0 to 100 scale) [16, 21]: 60; Plant response rating, Barnyardgrass (Flood) [17]: 0; Plant response rating, Ducksalad (Flood) [18]: 0; Plant response rating, Rice (Flood) [19]: 0; Plant response rating, Sedge, Umbrella (Flood) [20]: 0"
Cc1nn(C)c(=O)c(C(=NOC(C)C)c2cc(Cl)cc(Cl)c2Cl)c1O [Compound 295],80,100,0,0,100,100,0,70,80,100,90,100,100,100,50,70,0,0,0,30,"Foxtail, Giant plant response rating (0 to 100 scale) ([11]; Postemergence, 31 g ai/ha): 70; Foxtail, Giant plant response rating (0 to 100 scale) [11, 21]: 90; Galium plant response rating (0 to 100 scale) ([12]; Postemergence, 31 g ai/ha): 100; Galium plant response rating (0 to 100 scale) [12, 21]: 100; Kochia plant response rating (0 to 100 scale) ([13]; Postemergence, 31 g ai/ha): 0; Kochia plant response rating (0 to 100 scale) [13, 21]: 50; Pigweed plant response rating (0 to 100 scale) ([14]; Postemergence, 31 g ai/ha): 60; Pigweed plant response rating (0 to 100 scale) [14, 21]: 90; Ragweed plant response rating (0 to 100 scale) ([15]; Postemergence, 31 g ai/ha): 100; Ragweed plant response rating (0 to 100 scale) [15, 21]: 100; Wheat plant response rating (0 to 100 scale) ([16]; Postemergence, 31 g ai/ha): 30; Wheat plant response rating (0 to 100 scale) [16, 21]: 100; Plant response rating, Barnyardgrass (Flood) [17]: 60; Plant response rating, Ducksalad (Flood) [18]: 65; Plant response rating, Rice (Flood) [19]: 60; Plant response rating, Sedge, Umbrella (Flood) [20]: 70"
C#CCON=C(c1cc(Cl)cc(Cl)c1Cl)c1c(O)c(C)nn(C)c1=O [Compound 296],90,100,60,100,80,100,0,20,40,100,30,100,80,100,20,70,0,70,0,20,"Foxtail, Giant plant response rating (0 to 100 scale) ([11]; Postemergence, 31 g ai/ha): 30; Foxtail, Giant plant response rating (0 to 100 scale) [11, 21]: 90; Galium plant response rating (0 to 100 scale) ([12]; Postemergence, 31 g ai/ha): 100; Galium plant response rating (0 to 100 scale) [12, 21]: 100; Kochia plant response rating (0 to 100 scale) ([13]; Postemergence, 31 g ai/ha): 30; Kochia plant response rating (0 to 100 scale) [13, 21]: 50; Pigweed plant response rating (0 to 100 scale) ([14]; Postemergence, 31 g ai/ha): 80; Pigweed plant response rating (0 to 100 scale) [14, 21]: 90; Ragweed plant response rating (0 to 100 scale) ([15]; Postemergence, 31 g ai/ha): 100; Ragweed plant response rating (0 to 100 scale) [15, 21]: 100; Wheat plant response rating (0 to 100 scale) ([16]; Postemergence, 31 g ai/ha): 70; Wheat plant response rating (0 to 100 scale) [16, 21]: 100; Plant response rating, Barnyardgrass (Flood) [17]: 0; Plant response rating, Ducksalad (Flood) [18]: 0; Plant response rating, Rice (Flood) [19]: 0; Plant response rating, Sedge, Umbrella (Flood) [20]: 0"

# Reference: US20210045385A1, “PYRIDAZINONE-SUBSTITUTED KETOXIMES AS HERBICIDES” (FMC Corporation, priority 2018, published 2021)
